Measurements: ChEMBL document CHEMBL1201862, “PubChem BioAssay data set” (2004)
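Step 1: Grow cells in 96-well plates. Step 2: Expose to compound for 48 hours at 5 concentrations. Step 3: Interpolate endpoints linearly; if unreached, use highest concentration. Abbreviation: GI50, concentration required for 50% inhibition of growth.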 Activity calls are given as the source filed them. Rule as the data show it: active = GI50 up to about 1.1 µM and inactive = higher.

Legend:
Experiment in all cases: inhibition of tumour cell growth, NCI panel, 48 h
[1] = test system: NCI-H522
[2] = test system: SN12C
[3] = test system: PC-3
[4] = test system: K562
[5] = test system: MOLT-4
[6] = test system: HOP-92
[7] = test system: TK-10
[8] = test system: UACC-257
[9] = test system: SF-295
[10] = test system: LOX IMVI
[11] = test system: DU-145
[12] = test system: HCT-15
[13] = test system: MCF7
[14] = test system: HOP-62
[15] = test system: HCC 2998
[16] = test system: SF-268
[17] = test system: HT-29
[18] = test system: A549
[19] = test system: RXF 393
[20] = test system: U-251
[21] = test system: SK-OV-3
[22] = test system: MDA-MB-231
[23] = test system: HL-60
[24] = test system: UACC-62
[25] = test system: OVCAR-8
[26] = test system: NCI-H460
[27] = test system: OVCAR-4
[28] = test system: SR
[29] = test system: EKVX
[30] = test system: A498
[31] = test system: M14
[32] = test system: NCI-H23
[33] = test system: SF-539
[34] = test system: Malme-3M
[35] = test system: KM12
[36] = test system: BT-549
[37] = test system: 786-0
[38] = test system: IGROV-1
[39] = test system: T47D
[40] = test system: HCT-116
[41] = test system: NCI-H226
[42] = test system: Hs-578T
[43] = test system: OVCAR-5
[44] = test system: MDA-N
[45] = test system: CCRF-CEM
[46] = test system: SNB-75
[47] = test system: COLO 205
[48] = test system: MDA-MB-435
[49] = test system: SW-620
[50] = test system: NCI/ADR-RES
[51] = test system: SNB-19
[52] = test system: SK-MEL-5
[53] = test system: CAKI-1
[54] = test system: SK-MEL-28
[55] = test system: RPMI-8226
[56] = test system: OVCAR-3
[57] = test system: ACHN
[58] = test system: UO-31
[59] = test system: SK-MEL-2

O=[N+]([O-])c1nccn1CC(O)CN1CCCCC1 (stereo not drawn) [PIMONIDAZOLE]
GI50 [1]: > 100 µM (inactive)
GI50 [2]: > 100 µM (inactive)
GI50 [3]: > 100 µM (inactive)
GI50 [4]: > 100 µM (inactive)
GI50 [5]: > 100 µM (inactive)
GI50 [6]: > 100 µM (inactive)
GI50 [7]: > 100 µM (inactive)
GI50 [8]: > 100 µM (inactive)
GI50 [9]: > 100 µM (inactive)
GI50 [10]: > 100 µM (inactive)
GI50 [11]: > 100 µM (inactive)
GI50 [12]: > 100000 nM
GI50 [13]: > 100 µM (inactive)
GI50 [14]: > 100 µM (inactive)
GI50 [15]: > 100 µM (inactive)
GI50 [16]: > 100 µM (inactive)
GI50 [17]: > 100 µM (inactive)
GI50 [18]: > 100 µM (inactive)
GI50 [19]: > 100 µM (inactive)
GI50 [20]: > 100 µM (inactive)
GI50 [21]: > 100 µM (inactive)
GI50 [22]: > 100 µM (inactive)
GI50 [23]: > 100 µM (inactive)
GI50 [24]: > 100 µM (inactive)
GI50 [25]: > 100 µM (inactive)
GI50 [26]: > 100 µM (inactive)
GI50 [27]: > 100 µM (inactive)
GI50 [28]: > 100 µM (inactive)
GI50 [29]: > 100 µM (inactive)
GI50 [30]: > 100 µM (inactive)
GI50 [31]: > 100 µM (inactive)
GI50 [32]: > 100 µM (inactive)
GI50 [33]: > 100 µM (inactive)
GI50 [34]: > 100 µM (inactive)
GI50 [35]: > 100 µM (inactive)
GI50 [36]: > 100 µM (inactive)
GI50 [37]: > 100 µM (inactive)
GI50 [38]: > 100 µM (inactive)
GI50 [39]: > 100 µM (inactive)
GI50 [40]: > 100 µM (inactive)
GI50 [41]: > 100 µM (inactive)
GI50 [42]: > 100 µM (inactive)
GI50 [43]: > 100 µM (inactive)
GI50 [44]: > 100 µM (inactive)
GI50 [45]: > 100 µM (inactive)
GI50 [46]: > 100 µM (inactive)
GI50 [47]: > 100 µM (inactive)
GI50 [48]: > 100 µM (inactive)
GI50 [49]: > 100 µM (inactive)
GI50 [50]: > 100 µM (inactive)
GI50 [51]: > 100 µM (inactive)
GI50 [52]: > 100 µM (inactive)
GI50 [53]: > 100 µM (inactive)
GI50 [54]: > 100 µM (inactive)
GI50 [55]: > 100 µM (inactive)
GI50 [56]: > 100 µM (inactive)
GI50 [57]: > 100 µM (inactive)
GI50 [58]: > 100 µM (inactive)
GI50 [59]: > 100 µM (inactive)

Cc1ccc(C(=O)NC2C(=O)NC(C(C)C)C(=O)N3CCCC3C(=O)N(C)CC(=O)N(C)C(C(C)C)C(=O)OC2C)c2c1Oc1c(c(C(=O)NC3C(=O)NC(C(C)C)C(=O)N4CCCC4C(=O)N(C)CC(=O)N(C)C(C(C)C)C(=O)OC3C)c3nc(-c4ccccc4)c(=O)oc3c1C)N2 (stereo not drawn)
GI50 [1]: 0.0024 µM (active)
GI50 [2]: < 0.001 µM (active)
GI50 [3]: 0.00219 µM (active)
GI50 [4]: 0.00312 µM (active)
GI50 [5]: 0.00222 µM (active)
GI50 [6]: 0.016 µM (active)
GI50 [7]: 0.0578 µM (active)
GI50 [8]: 0.00871 µM (active)
GI50 [9]: < 0.001 µM (active)
GI50 [10]: < 0.001 µM (active)
GI50 [11]: 0.00422 µM (active)
GI50 [12]: 37.7 nM
GI50 [13]: < 0.001 µM (active)
GI50 [14]: < 0.001 µM (active)
GI50 [15]: < 0.001 µM (active)
GI50 [16]: < 0.001 µM (active)
GI50 [17]: < 0.001 µM (active)
GI50 [18]: < 0.001 µM (active)
GI50 [19]: 0.00161 µM (active)
GI50 [20]: < 0.001 µM (active)
GI50 [21]: 0.00159 µM (active)
GI50 [22]: 0.00762 µM (active)
GI50 [23]: 0.00995 µM (active)
GI50 [24]: < 0.001 µM (active)
GI50 [25]: < 0.001 µM (active)
GI50 [26]: < 0.001 µM (active)
GI50 [27]: 0.151 µM (active)
GI50 [28]: 0.01 µM (active)
GI50 [29]: 0.00705 µM (active)
GI50 [30]: < 0.001 µM (active)
GI50 [31]: 0.0231 µM (active)
GI50 [32]: 0.00167 µM (active)
GI50 [33]: < 0.001 µM (active)
GI50 [34]: 0.00361 µM (active)
GI50 [35]: < 0.001 µM (active)
GI50 [36]: < 0.001 µM (active)
GI50 [37]: < 0.001 µM (active)
GI50 [38]: < 0.001 µM (active)
GI50 [39]: 0.00453 µM (active)
GI50 [40]: < 0.001 µM (active)
GI50 [41]: 0.00163 µM (active)
GI50 [42]: 0.00134 µM (active)
GI50 [43]: 0.00216 µM (active)
GI50 [44]: 0.00348 µM (active)
GI50 [45]: 0.00255 µM (active)
GI50 [46]: 0.00101 µM (active)
GI50 [47]: 0.0039 µM (active)
GI50 [48]: 0.00154 µM (active)
GI50 [49]: 0.004 µM (active)
GI50 [50]: 0.189 µM (active)
GI50 [51]: < 0.001 µM (active)
GI50 [52]: 0.00177 µM (active)
GI50 [53]: 0.00948 µM (active)
GI50 [54]: < 0.001 µM (active)
GI50 [55]: 0.00147 µM (active)
GI50 [56]: 0.01 µM (active)
GI50 [57]: 0.00515 µM (active)
GI50 [58]: 0.0103 µM (active)
GI50 [59]: 0.00112 µM (active)
